# Tested on: Phosphorylation of STAT6 in human A549 cells
# Assay: Phosphorylated STAT6 (pSTAT6) flow cytometry assay in human A549 cells
# Type: cell-based
# Details: listed as I-391, read-out: STAT6 IL4 pSTAT6 assay in A549 cells: Average IC50
# Description: Example 3. Phosphorylated STAT6 (pSTAT6) Flow Cytometry Assay in Human A549 Cells
# Phosphorylation of STAT6 in human A549 cells was quantitatively measured using flow cytometry technology.
row,SMILES,IC50 [nM]
1,"COc1cc(F)cnc1N1CCN(C(=O)c2cc3c([C@H]4CCCN4C)cc(C4=CCCN(C(=O)CCn5ccnn5)C4)c(F)c3[nH]2)CC1 (single isomer, unassigned) [Example I-814]",< 100

# Same assay, conditions: read-out: STAT6 IL4 pSTAT6 assay in A549 cells: Average IC50
row,IC50 [nM],SMILES
1,100 to 1000,COc1cc(F)cnc1N1CCN(C(=O)c2cc3c(C4=CCC5(CC4)CC5)cc(C4=CCCN(C(=O)CCn5ccnn5)C4)c(F)c3[nH]2)CC1 [Example I-1159]
2,100 to 1000,CN(C)C(=O)c1cc2ccc([C@H]3CCCN(C(=O)CCn4ccnn4)C3)cc2[nH]1 [Example I-1189]
3,< 100,CC(=O)N1CCC=C(c2cc(-c3cncc4ccccc34)c3cc(C(=O)N(C)C)[nH]c3c2F)C1 [Example I-1098]
4,< 100,COc1ccccc1-c1cc(C2=CCCN(C(=O)CCn3ccnn3)C2)c(F)c2[nH]c(C(=O)N3CCN(c4cc(C)cn5ncnc45)CC3)cc12 [Example I-950]
5,< 100,COc1ccccc1-c1cc(C2=CCCN(C(=O)CCn3ccnn3)C2)c(F)c2[nH]c(C(=O)N3CCN(c4cc(C#N)cc5[nH]ccc45)CC3)cc12 [Example I-771]
6,< 100,COc1ccccc1-c1cc(C2=CCCN(C(=O)CCn3ccnn3)C2)c(F)c2[nH]c(C(=O)N3CCN(Cc4ccccc4)CC3)cc12 [Example I-1202]
7,100 to 1000,CCCCOc1ccc(-c2cc(C3=CCCN(C(=O)CCn4ccnn4)C3)c(F)c3[nH]c(C(=O)N4CCN(c5ncc(F)cc5OC)CC4)cc23)cc1 [Example I-1127]
8,< 100,COc1ccccc1-c1cc(C2=CCCN(C(=O)CCn3ccnn3)C2)cc2cc(C(=O)N(C)C)oc12 [Example I-1103]
9,> 100000,COc1ccccc1-c1cc(C2=CCCN(C(=O)CCn3ccnn3)C2)c(F)c2[nH]c(C(=O)NC(C#N)c3ccccc3)cc12 (stereo not drawn) [Example I-772]
10,> 100000,CCn1ncc2c1CN(C(=O)c1cc3c(-c4cnc(C5CC5)cc4C)cc(C4=CCCN(C(=O)CCn5ccnn5)C4)c(F)c3[nH]1)C2 [Example I-766]
11,< 100,CN(C)C(=O)c1ccc2c(c1)cc(C1=CCCN(C(=O)CCn3ccnn3)C1)n2CC1CC1 [Example I-1096]
12,< 100,COc1ccccc1-c1cc(C2=CCCN(C(=O)CCn3ccnn3)C2)c(F)c2[nH]c(C(=O)N3CCN(c4ncc(C)cc4OC)CC3)cc12 [Example I-939]
13,< 100,COc1ccccc1-c1cc(C2=CCCN(C(=O)CCn3ccnn3)C2)c(F)c2[nH]c(C(=O)N3CCCN(c4ccc(F)cn4)CC3)cc12 [Example I-850]
14,< 100,COc1ccccc1-c1cc(C2=CCCN(C(=O)CCn3ccnn3)C2)c(F)c2[nH]c(C(=O)N3CCN(C(C)(C)C)CC3)cc12 [Example I-773]
15,< 100,COc1ccccc1-c1cc(C2=CCCN(C(=O)C3Cc4ccccc4CN3C=O)C2)cc2cc(C(=O)N(C)C)oc12 (stereo not drawn) [Example I-838]
16,> 100000,"COc1cc(F)cnc1N1CCN(C(=O)c2cc3c([C@H]4CCCN4C)cc(C4=CCCN(C(=O)CCn5ccnn5)C4)c(F)c3[nH]2)CC1 (single isomer, unassigned) [Example I-814]"

row,IC50 [nM],SMILES
1,< 100,COc1cc(-c2cc(C3=CCCN(C(=O)CCn4ccnn4)C3)cc3cc(C(=O)N(C)C)oc23)cc(OC)c1OC [Example I-1088]
2,< 100,COc1ccccc1-c1cc(C2=CCCN(C(=O)CCn3ccnn3)C2)c(F)c2[nH]c(C(=O)N3CCN(c4nc5ccccc5n4CC4CC4)CC3)cc12 [Example I-943]
3,< 100,COc1ccccc1-c1cc(C2=CCCN(C(=O)CCn3ccnn3)C2)c(F)c2[nH]c(C(=O)N3CCCC3)cc12 [Example I-842]
4,100 to 1000,CCc1ccccc1N1CCN(C(=O)c2cc3c(-c4ccccc4OC)cc(C4=CCCN(C(=O)CCn5ccnn5)C4)c(F)c3[nH]2)CC1 [Example I-969]
5,< 100,COc1ccccc1-c1cc(C2=CCCN(C(=O)CCn3ccnn3)C2)c(F)c2[nH]c(C(=O)N3CCN(Cc4cccn(C)c4=O)CC3)cc12 [Example I-1198]
6,100 to 1000,COc1ccccc1-c1cc(C2=CCCN(C(=O)CCn3ccnn3)C2)c(F)c2[nH]c(C(=O)N3CCN(c4cc(O)cc5ccccc45)CC3)cc12 [Example I-930]
7,< 100,COc1ccc(Cl)cc1-c1cc(C2=CCCN(C(=O)CCn3ccnn3)C2)cc2[nH]c(C(=O)N(C)C)cc12 [Example I-1058]
8,< 100,COc1ccccc1-c1cc(C2=CCCN(C(=O)CCn3ccnn3)C2)c(F)c2[nH]c(C(=O)N3CCN(c4cn(C)c5ncncc45)CC3)cc12 [Example I-1016]
9,< 100,COc1ccccc1-c1cc(C2=CCCN(C(=O)CCn3ccnn3)C2)c(F)c2[nH]c(C(=O)N3CCN(c4ccn5nc(C)nc5c4)CC3)cc12 [Example I-919]
10,> 100000,COC(=O)CC(=O)N1CCC=C(c2cc3cc(C(=O)N4Cc5cnn(C)c5C4)cc(-c4cccnc4OC)c3n2CC2CC2)C1 [Example I-795]
11,< 100,COc1ccccc1-c1cc(C2=CCCN(C(=O)CCn3ccnn3)C2)c(F)c2[nH]c(C(=O)N3CCN(c4cc(=O)[nH]cc4F)CC3)cc12 [Example I-779]
12,< 100,COc1ccccc1-c1cc(C2=CCCN(C(=O)CCn3ccnn3)C2)c(F)c2[nH]c(C(=O)N3CCN(c4ccccn4)CC3)cc12 [Example I-862]
13,< 100,COc1ccccc1-c1cc(C2=CCCN(C(=O)CCn3ccnn3)C2)c(F)c2[nH]c(C(=O)N3CCN(C4CC5CCC4C5)CC3)cc12 (stereo not drawn) [Example I-1181]
14,< 100,COc1ccccc1-c1cc(C2=CCCN(C(=O)CCn3ccnn3)C2)c(F)c2[nH]c(C(=O)N3CCN(c4ncn5c4CCCC5)CC3)cc12 [Example I-1034]
15,< 100,COc1cnccc1-c1cc(C2=CCCN(C(=O)CCn3ccnn3)C2)cc2[nH]c(C(=O)N(C)C)cc12 [Example I-1060]
16,< 100,Cc1cc(C)c(-c2cc(C3=CCCN(C(=O)CCn4ccnn4)C3)cc3cc(C(=O)N(C)C)oc23)cc1C [Example I-856]

# The remaining lines, values behind:
row,SMILES,IC50 [nM]
1,COc1cc(F)cnc1N1CCN(C(=O)c2cc3c(-c4cc(C)ncc4C)cc(C4=CCCN(C(=O)CCn5ccnn5)C4)c(F)c3[nH]2)CC1 [Example I-646],< 100
2,CCc1cc(C)ncc1-c1cc(C2=CCCN(C(=O)CCn3cccn3)C2)c(F)c2[nH]c(C(=O)N3CCN(c4cc(C)ccc4OC)CC3)cc12 [Example I-515],< 100
3,COc1ccccc1-c1cc(C2=CCCN(C(=O)CCn3ccnn3)C2)c(F)c2[nH]c(C(=O)N3CCN(c4ncccc4C#N)CC3)cc12 [Example I-328],< 100
4,COc1cc(F)cnc1N1CCN(C(=O)c2cc3c(-c4ccnc(N5CCOCC5)c4)cc(C4=CCCN(C(=O)CCn5ccnn5)C4)c(F)c3[nH]2)CC1 [Example I-680],< 100
5,COc1cc(Cl)cnc1N1CCN(C(=O)c2cc3c(-c4cc(F)cc(F)c4OC)cc(C4=CCCN(C(=O)CCn5ccnn5)C4)c(F)c3[nH]2)CC1 [Example I-462],100 to 1000
6,COc1cc(F)cnc1N1CCN(C(=O)c2cc3c(-c4cncc(OC(F)F)c4)cc(C4=CCCN(C(=O)CCn5ccnn5)C4)c(F)c3[nH]2)CC1 [Example I-651],< 100
7,COc1cnc(N2CCN(C(=O)c3cc4c(-c5ccccc5OC)cc(C5=CCCN(C(=O)CCn6ccnn6)C5)c(F)c4[nH]3)CC2)c(OC)c1 [Example I-352],< 100
8,COc1cccnc1N1CCN(C(=O)c2cc3c(-c4cc(C#N)ccn4)cc(C4=CCCN(C(=O)CCn5ccnn5)C4)c(F)c3[nH]2)CC1 [Example I-581],< 100
9,COc1ccccc1-c1cc(C2=CCCN(C(=O)CCn3ccnn3)C2)c(F)c2[nH]c(C(=O)N3CCN(c4ncc(Cl)cc4OC)CC3)cc12 [Example I-369],< 100
10,COc1ccccc1-c1cc(C2CCCN(C(=O)CCn3ccnn3)C2)c(F)c2[nH]c(C(=O)N3CCN(c4ncccc4OC4CC4)CC3)cc12 (stereo not drawn) [Example I-364],< 100
11,COc1cc(F)cnc1N1CCN(C(=O)c2cc3c(-c4cccc(-c5ccncc5)c4)cc(C4=CCCN(C(=O)CCn5ccnn5)C4)c(F)c3[nH]2)CC1 [Example I-626],< 100
12,COc1cccnc1N1CCN(C(=O)c2cc3c(-c4cccnc4OC)cc(C4=CCCN(C(=O)CCn5ccnn5)C4)c(F)c3[nH]2)CC1 [Example I-410],> 100000
13,COc1cccnc1N1CCN(C(=O)c2cc3c(-c4cccc(C)c4OC)cc(C4=CCCN(C(=O)CCn5ccnn5)C4)c(F)c3[nH]2)CC1 [Example I-560],< 100
14,COc1ccncc1-c1cc(C2=CCCN(C(=O)CCn3ccnn3)C2)c(F)c2[nH]c(C(=O)N3CCN(c4ncccc4OC4CC4)CC3)cc12 [Example I-456],< 100
15,CCc1cnccc1-c1cc(C2=CCCN(C(=O)CCn3ccnn3)C2)c(F)c2[nH]c(C(=O)N3CCN(c4ncc(F)cc4OC)CC3)cc12 [Example I-689],< 100
16,COc1cccnc1N1CCN(C(=O)c2cc3c(-n4nc(C)cc4C)cc(C4=CCCN(C(=O)CCn5ccnn5)C4)c(F)c3[nH]2)CC1 [Example I-586],< 100
17,COc1cnccc1-c1cc(C2=CCCN(C(=O)CCn3ccnn3)C2)c(F)c2[nH]c(C(=O)N3CCN(c4ncc(Cl)cc4OC)CC3)cc12 [Example I-457],< 100
18,COC(=O)c1ccc(OC)c(N2CCN(C(=O)c3cc4c(-c5ccccc5OC)cc(C5=CCCN(C(=O)CCn6ccnn6)C5)c(F)c4[nH]3)CC2)n1 [Example I-360],< 100
19,COc1cc(F)cnc1N1CCN(C(=O)c2cc3c(-c4cccc(C5CC5)c4)cc(C4=CCCN(C(=O)CCn5ccnn5)C4)c(F)c3[nH]2)CC1 [Example I-674],100 to 1000
20,CCc1cccnc1N1CCN(C(=O)c2cc3c(-c4ccccc4OC)cc(C4=CCCN(C(=O)CCn5ccnn5)C4)c(F)c3[nH]2)CC1 [Example I-327],< 100
21,COc1cc(F)cnc1N1CCN(C(=O)c2cc3c(-c4cc(C)cc5cccnc45)cc(C4=CCCN(C(=O)CCn5ccnn5)C4)c(F)c3[nH]2)CC1 [Example I-633],< 100
22,COc1ccc(F)cc1-c1cc(C2=CCCN(C(=O)CCn3ccnn3)C2)c(F)c2[nH]c(C(=O)N3CCN(c4ncccc4OC)CC3)cc12 [Example I-395],> 100000
23,COCCOc1cccnc1N1CCN(C(=O)c2cc3c(-c4ccccc4OC)cc(C4=CCCN(C(=O)CCn5ccnn5)C4)c(F)c3[nH]2)CC1 [Example I-330],< 100
24,CCOc1cccnc1N1CCN(C(=O)c2cc3c(-c4ccccc4OC)cc(C4=CCCN(C(=O)CCn5ccnn5)C4)c(F)c3[nH]2)CC1 [Example I-335],< 100

# From patent US20250214977A1, “STAT6 INHIBITORS AND USES THEREOF” (Kymera Therapeutics, Inc., priority 2024, published 2025)
